Test results published in PubChem BioAssay (NCI).
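Each compound was tested at five concentrations against cells in 96-well plates for 48 hours. TGI denotes the concentration required for complete inhibition of growth.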

How the values were obtained:
Assay in all cases: inhibition of tumour cell growth, NCI panel, 48 h
UO-31 renal = system: UO-31 renal
KM20L2 colon = system: KM20L2 colon
SNB-75 CNS = system: SNB-75 CNS
SNB-78 CNS = system: SNB-78 CNS
HOP-18 NSCLC = system: HOP-18 NSCLC
RPMI-8226 leukemia = system: RPMI-8226 leukemia
NCI-H226 lung = system: NCI-H226 lung
SF-295 CNS = system: SF-295 CNS
UACC-257 melanoma = system: UACC-257 melanoma
RXF 393 renal = system: RXF 393 renal
HCT-15 colon = system: HCT-15 colon
U251 CNS = system: U251 CNS
SK-OV-3 ovarian = system: SK-OV-3 ovarian
UACC-62 melanoma = system: UACC-62 melanoma
SN12C renal = system: SN12C renal
DLD-1 colon = system: DLD-1 colon
SK-MEL-2 melanoma = system: SK-MEL-2 melanoma
SNB-19 CNS = system: SNB-19 CNS
A549 NSCLC = system: A549 NSCLC
SK-MEL-5 melanoma = system: SK-MEL-5 melanoma
NCI-H23 lung = system: NCI-H23 lung
HT29 colon = system: HT29 colon
LOX IMVI melanoma = system: LOX IMVI melanoma
OVCAR-8 ovarian = system: OVCAR-8 ovarian
CCRF-CEM leukemia = system: CCRF-CEM leukemia
M19-MEL melanoma = system: M19-MEL melanoma
OVCAR-4 ovarian = system: OVCAR-4 ovarian
HOP-92 NSCLC = system: HOP-92 NSCLC
MOLT-4 leukemia = system: MOLT-4 leukemia
SK-MEL-28 melanoma = system: SK-MEL-28 melanoma
ACHN renal = system: ACHN renal
OVCAR-5 ovarian = system: OVCAR-5 ovarian
NCI-H460 lung = system: NCI-H460 lung
SW-620 colon = system: SW-620 colon
CAKI-1 renal = system: CAKI-1 renal
DMS 273 small cell lung = system: DMS 273 small cell lung
TK-10 renal = system: TK-10 renal
EKVX NSCLC = system: EKVX NSCLC
HCC-2998 colon = system: HCC-2998 colon
XF 498 CNS = system: XF 498 CNS
KM12 colon = system: KM12 colon
K-562 leukemia = system: K-562 leukemia
MALME-3M melanoma = system: MALME-3M melanoma
M14 melanoma = system: M14 melanoma
A498 renal = system: A498 renal
HL-60(TB) leukemia = system: HL-60(TB) leukemia
SF-268 CNS = system: SF-268 CNS
OVCAR-3 ovarian = system: OVCAR-3 ovarian
COLO 205 colon = system: COLO 205 colon
IGROV1 ovarian = system: IGROV1 ovarian
DMS 114 small cell lung = system: DMS 114 small cell lung
786-0 renal = system: 786-0 renal
LXFL 529 NSCLC = system: LXFL 529 NSCLC
NCI-H522 lung = system: NCI-H522 lung
SF-539 CNS = system: SF-539 CNS
HOP-62 NSCLC = system: HOP-62 NSCLC
SR leukemia = system: SR leukemia
HCT-116 colon = system: HCT-116 colon

Compound `COc1ccc(S(=O)(=O)N/N=C\c2cc([N+](=O)[O-])cc(I)c2O)c(OC)c1OC` has a TGI (UO-31 renal) of 40.2 µM, a TGI (KM20L2 colon) greater than 100 µM and a TGI (SNB-75 CNS) of 70.1 µM. For the same compound, the TGI (SNB-78 CNS) was 74 µM, the TGI (HOP-18 NSCLC) was 63.5 µM and the TGI (RPMI-8226 leukemia) was 71.6 µM. It also gave a TGI (NCI-H226 lung) of 41.9 µM, a TGI (SF-295 CNS) greater than 100 µM and a TGI (UACC-257 melanoma) of 75.5 µM. For the same compound, the TGI (RXF 393 renal) was 54.6 µM, the TGI (HCT-15 colon) was 55.8 µM and the TGI (U251 CNS) was 66 µM. The TGI (SK-OV-3 ovarian) was 64 µM, the TGI (UACC-62 melanoma) was 45.4 µM and the TGI (SN12C renal) was greater than 100 µM. The TGI (DLD-1 colon) was 95.1 µM, the TGI (SK-MEL-2 melanoma) was 45.3 µM and the TGI (SNB-19 CNS) was 76.3 µM. For the same compound, the TGI (A549 NSCLC) was greater than 100 µM, the TGI (SK-MEL-5 melanoma) was 45.5 µM and the TGI (NCI-H23 lung) was 67.1 µM. The TGI (HT29 colon) was greater than 100 µM, the TGI (LOX IMVI melanoma) was 92.4 µM and the TGI (OVCAR-8 ovarian) was greater than 100 µM. For the same compound, the TGI (CCRF-CEM leukemia) was 59.1 µM, the TGI (M19-MEL melanoma) was 87.2 µM and the TGI (OVCAR-4 ovarian) was 72.7 µM. It also gave a TGI (HOP-92 NSCLC) of 37 µM, a TGI (MOLT-4 leukemia) of 64.9 µM and a TGI (SK-MEL-28 melanoma) of 64.7 µM. For the same compound, the TGI (ACHN renal) was 92.1 µM, the TGI (OVCAR-5 ovarian) was greater than 100 µM and the TGI (NCI-H460 lung) was greater than 100 µM. It also gave a TGI (SW-620 colon) greater than 100 µM, a TGI (CAKI-1 renal) of 67.4 µM and a TGI (DMS 273 small cell lung) greater than 100 µM. For the same compound, the TGI (TK-10 renal) was greater than 100 µM, the TGI (EKVX NSCLC) was 80.7 µM and the TGI (HCC-2998 colon) was 86.8 µM. For the same compound, the TGI (XF 498 CNS) was 48 µM, the TGI (KM12 colon) was greater than 100 µM and the TGI (K-562 leukemia) was greater than 100 µM. For the same compound, the TGI (MALME-3M melanoma) was 85.2 µM, the TGI (M14 melanoma) was 77.6 µM and the TGI (A498 renal) was 83 µM. It also gave a TGI (HL-60(TB) leukemia) of 71.4 µM, a TGI (SF-268 CNS) of 75 µM and a TGI (OVCAR-3 ovarian) of 62.8 µM. For the same compound, the TGI (COLO 205 colon) was 45 µM, the TGI (IGROV1 ovarian) was greater than 100 µM and the TGI (DMS 114 small cell lung) was 64.6 µM. The TGI (786-0 renal) was 61.4 µM.

`Cc1cc(O)c(C(=O)O)c2c1C(=O)c1c(O)c(OCC(O)C(O)C(O)C(O)CO)c(O)c(O)c1C2=O` (configuration not stated) (tested in a mixture with another compound) gave a TGI (UO-31 renal) greater than 100 µM, a TGI (KM20L2 colon) greater than 100 µM and a TGI (SNB-75 CNS) greater than 100 µM. It also gave a TGI (SNB-78 CNS) greater than 100 µM, a TGI (HOP-18 NSCLC) greater than 100 µM and a TGI (RPMI-8226 leukemia) greater than 100 µM. It also gave a TGI (NCI-H226 lung) greater than 100 µM, a TGI (SF-295 CNS) greater than 100 µM and a TGI (UACC-257 melanoma) greater than 100 µM. For the same compound, the TGI (RXF 393 renal) was greater than 100 µM, the TGI (HCT-15 colon) was greater than 100 µM and the TGI (U251 CNS) was greater than 100 µM. It also gave a TGI (SK-OV-3 ovarian) greater than 100 µM, a TGI (UACC-62 melanoma) greater than 100 µM and a TGI (SN12C renal) greater than 100 µM. For the same compound, the TGI (LXFL 529 NSCLC) was greater than 100 µM, the TGI (NCI-H522 lung) was greater than 100 µM and the TGI (DLD-1 colon) was greater than 100 µM. The TGI (SK-MEL-2 melanoma) was greater than 100 µM, the TGI (SNB-19 CNS) was greater than 100 µM and the TGI (A549 NSCLC) was greater than 100 µM. The TGI (SK-MEL-5 melanoma) was greater than 100 µM, the TGI (NCI-H23 lung) was greater than 100 µM and the TGI (HT29 colon) was greater than 100 µM. For the same compound, the TGI (LOX IMVI melanoma) was greater than 100 µM, the TGI (OVCAR-8 ovarian) was greater than 100 µM and the TGI (CCRF-CEM leukemia) was greater than 100 µM. It also gave a TGI (M19-MEL melanoma) greater than 100 µM, a TGI (OVCAR-4 ovarian) greater than 100 µM and a TGI (HOP-92 NSCLC) greater than 100 µM. The TGI (MOLT-4 leukemia) was greater than 100 µM, the TGI (SK-MEL-28 melanoma) was greater than 100 µM and the TGI (SF-539 CNS) was greater than 100 µM. It also gave a TGI (OVCAR-5 ovarian) greater than 100 µM, a TGI (SW-620 colon) greater than 100 µM and a TGI (CAKI-1 renal) greater than 100 µM. It also gave a TGI (TK-10 renal) greater than 100 µM, a TGI (EKVX NSCLC) greater than 100 µM and a TGI (HCC-2998 colon) greater than 100 µM. It also gave a TGI (XF 498 CNS) greater than 100 µM, a TGI (KM12 colon) greater than 100 µM and a TGI (K-562 leukemia) greater than 100 µM. The TGI (MALME-3M melanoma) was greater than 100 µM, the TGI (M14 melanoma) was greater than 100 µM and the TGI (A498 renal) was greater than 100 µM. The TGI (SF-268 CNS) was greater than 100 µM, the TGI (OVCAR-3 ovarian) was greater than 100 µM and the TGI (COLO 205 colon) was greater than 100 µM. The TGI (HOP-62 NSCLC) was greater than 100 µM, the TGI (IGROV1 ovarian) was greater than 100 µM and the TGI (DMS 114 small cell lung) was greater than 100 µM. For the same compound, the TGI (786-0 renal) was greater than 100 µM.

`COc1ccc(/C=C2\C(=O)N(C(=O)c3ccc(NC(C)=O)cc3)N=C2C)cc1` gave a TGI (UO-31 renal) greater than 100 µM, a TGI (SNB-75 CNS) greater than 100 µM and a TGI (SNB-78 CNS) greater than 100 µM. For the same compound, the TGI (HOP-18 NSCLC) was greater than 100 µM, the TGI (RPMI-8226 leukemia) was greater than 100 µM and the TGI (NCI-H226 lung) was greater than 100 µM. For the same compound, the TGI (SF-295 CNS) was greater than 100 µM, the TGI (UACC-257 melanoma) was greater than 100 µM and the TGI (HCT-15 colon) was greater than 100 µM. For the same compound, the TGI (SR leukemia) was greater than 100 µM, the TGI (SN12C renal) was greater than 100 µM and the TGI (NCI-H522 lung) was greater than 100 µM. It also gave a TGI (SK-MEL-2 melanoma) greater than 100 µM, a TGI (SNB-19 CNS) greater than 100 µM and a TGI (HCT-116 colon) greater than 100 µM. For the same compound, the TGI (A549 NSCLC) was greater than 100 µM, the TGI (SK-MEL-5 melanoma) was greater than 100 µM and the TGI (NCI-H23 lung) was greater than 100 µM. The TGI (HT29 colon) was greater than 100 µM, the TGI (LOX IMVI melanoma) was greater than 100 µM and the TGI (OVCAR-8 ovarian) was greater than 100 µM. For the same compound, the TGI (CCRF-CEM leukemia) was greater than 100 µM, the TGI (M19-MEL melanoma) was greater than 100 µM and the TGI (OVCAR-4 ovarian) was greater than 100 µM. For the same compound, the TGI (MOLT-4 leukemia) was greater than 100 µM, the TGI (SK-MEL-28 melanoma) was greater than 100 µM and the TGI (SF-539 CNS) was greater than 100 µM. For the same compound, the TGI (ACHN renal) was greater than 100 µM, the TGI (OVCAR-5 ovarian) was greater than 100 µM and the TGI (NCI-H460 lung) was greater than 100 µM. The TGI (SW-620 colon) was greater than 100 µM, the TGI (CAKI-1 renal) was greater than 100 µM and the TGI (DMS 273 small cell lung) was greater than 100 µM. It also gave a TGI (TK-10 renal) greater than 100 µM, a TGI (EKVX NSCLC) greater than 100 µM and a TGI (HCC-2998 colon) greater than 100 µM. The TGI (XF 498 CNS) was greater than 100 µM, the TGI (KM12 colon) was greater than 100 µM and the TGI (K-562 leukemia) was greater than 100 µM. It also gave a TGI (MALME-3M melanoma) greater than 100 µM, a TGI (M14 melanoma) greater than 100 µM and a TGI (HL-60(TB) leukemia) greater than 100 µM. For the same compound, the TGI (SF-268 CNS) was greater than 100 µM, the TGI (OVCAR-3 ovarian) was greater than 100 µM and the TGI (COLO 205 colon) was greater than 100 µM. The TGI (HOP-62 NSCLC) was greater than 100 µM, the TGI (DMS 114 small cell lung) was greater than 100 µM and the TGI (786-0 renal) was greater than 100 µM.
